Laboratory results: US9290487B2, “Pharmaceutical composition for treating diabetes” (Ajinomoto Co., Inc., priority 2011, dated 2016)

Biological target: human GYS1 (glycogen synthase) (Homo sapiens (Human), UniProt P13807)
Experiment: Measurement of glycogen synthase activity (coupled pyruvate kinase/lactate dehydrogenase assay, absorbance at 340 nm)
Type: biochemical
Conditions: concentration inducing relative activity of 50% (100% = Ex. 1 of WO/2011/058154 at 10 μM); incubation at 30° C. for 25 minutes (Examples 1 to 10)
Method: A human GYS1 expression plasmid (pCDNA3.1(+)-hGYS1) was constructed by the following method. Using a human skeletal muscle cDNA of Human MTC Panel I (Takara Bio Inc., 636742) as a template, a human GYS1 gene was amplified by a PCR method using cloning primers (Forward Primer: ATGCCTTTAAACCGCAC (SEQ ID NO: 1), Reverse Primer: TTAGTTACGCTCCTCGC (SEQ ID NO: 2)). Using the amplified human GYS1 sequence as a template, a restriction enzyme sequence was added by a PCR method using sub-cloning primers (Forward Primer: […] (SEQ ID NO: 3), Reverse Primer: […] (SEQ ID NO: 4)). Then, the human GYS1 gene was introduced between a Xho I site and a Xba I site of pCDNA3.1(+) (Invitrogen Corporation, V790-20).
Glycogen synthase was prepared by the following method according to the published article (THE JOURNAL OF BIOLOGICAL CHEMISTRY Vol. 269, No. 41, 25534-25542, 1994). Human kidney-derived HEK293T cells were seeded in a dish (Thermo Fisher Scientific Inc., 168381) using a 10% FBS-containing DMEM (Nacalai Tesque, Inc., 0845874) medium, and cultured overnight. Then, using Lipofectamine LTX (Invitrogen Corporation, 15338-100), the human GYS1 expression vector was transfected according to the attached manual. After culturing under conditions of 37° C. and 5% CO2 for 2 days, the resultant was dissolved in a lysis buffer (50 mM Tris-HCl (pH 8.0), 10 mM EDTA, 2 mM EGTA, 100 mM NaF, 1 mM PMSF, 1 mM DTT, 1× Complete (Roche Diagnostics K. K., 1873580)), homogenized, and then centrifuged at 16000×g at 4° C. for 15 minutes. To the precipitated fraction, a lysis buffer was added. Re-dissolved fractions were used as glycogen synthase for evaluation.
The glycogen synthase activity was measured by the following method. To a polystyrene 96-well plate, a solution containing 30 mM glycylglycine (pH 7.3), 40 mM KCl, 20 mM MgCl2, 9.2% DMSO containing one of the test compounds at various concentrations, and 10 mM glucose-6-phosphate (Sigma-Aldrich Corporation, G7879) was added by 12 μL/well.
Next, a substrate solution containing 30 mM glycylglycine (pH 7.3), 4.3 mg/mL of glycogen (Sigma-Aldrich Corporation, G8876), 21.6 mM UDP-glucose (Sigma-Aldrich Corporation, U4625), 21.6 mM phosphoenolpyruvic acid (Sigma-Aldrich Corporation, P0564), and 4.05 mM NADH (Sigma-Aldrich Corporation, N8129) was added by 18 μL/well.
Further, an enzyme solution containing 50 mM Tris-HCl (pH 8.0), 27 mM DTT (Nacalai Tesque, Inc., 14128-04), 0.2 mg/mL of bovine serum albumin, 0.17 mg/mL of the glycogen synthase, 1.5 μL of a pyruvate kinase/lactate dehydrogenase solution (Sigma-Aldrich Corporation, P0294) was added by 18 μL/well to prepare a reaction solution. After the reaction solution was incubated (at 30° C. for 25 minutes for Examples 1 to 10, at 37° C. for 20 minutes for Examples 11 to 75), the absorbance at 340 nm was measured using Benchmark Plus (Bio-Rad Laboratories, Inc.).
The activities of the test compounds were calculated by the following method. The change in the absorbance (ΔA340) was calculated by subtracting the absorbance at 340 nm of the reaction solution containing the compound and DMSO from the absorbance at 340 nm of a reaction solution not containing the compound but containing only DMSO. The ΔA340 of the reaction solution containing the compound of Example 1 in WO/2011/058154 at the final concentration of 10 μM was taken as 100% to calculate the relative activity (%) of the test compounds at various concentrations. EC50 representing the concentration of the compound which induces an increase in the relative activity to 50% was calculated using XLfit (idbs).

Sequence of human GYS1 (glycogen synthase) (P13807 whole entry): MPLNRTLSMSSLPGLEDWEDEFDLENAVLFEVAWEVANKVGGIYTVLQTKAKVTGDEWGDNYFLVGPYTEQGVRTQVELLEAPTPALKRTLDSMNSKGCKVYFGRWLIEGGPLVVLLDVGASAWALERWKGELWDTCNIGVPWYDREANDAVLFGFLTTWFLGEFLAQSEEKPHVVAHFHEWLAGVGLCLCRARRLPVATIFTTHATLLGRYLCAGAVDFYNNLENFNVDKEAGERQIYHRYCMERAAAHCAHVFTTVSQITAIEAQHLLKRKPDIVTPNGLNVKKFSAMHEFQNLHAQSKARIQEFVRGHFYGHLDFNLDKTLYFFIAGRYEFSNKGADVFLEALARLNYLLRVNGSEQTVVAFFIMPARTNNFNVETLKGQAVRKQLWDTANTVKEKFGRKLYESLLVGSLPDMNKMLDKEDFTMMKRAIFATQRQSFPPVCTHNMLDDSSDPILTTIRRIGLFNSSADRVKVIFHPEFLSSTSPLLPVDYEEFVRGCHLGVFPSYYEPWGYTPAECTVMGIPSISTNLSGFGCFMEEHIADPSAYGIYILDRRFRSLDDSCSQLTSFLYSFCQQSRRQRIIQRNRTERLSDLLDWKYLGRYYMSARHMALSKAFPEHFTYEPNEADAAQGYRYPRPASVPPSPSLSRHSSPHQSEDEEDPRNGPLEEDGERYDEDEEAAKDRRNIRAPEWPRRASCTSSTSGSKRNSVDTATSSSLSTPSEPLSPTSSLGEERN

Question: How did the EC50 turn out when `CN(CC(=O)O)C(=O)c1cccc(COc2ccc(-c3cc(F)cc4c3OCC4)cc2)c1` [compound of Ex. 2, N-(3-{[4-(5-fluoro-2,3-dihydro-1-benzofuran-7-yl)phenoxy]methyl}benzoyl)-N-methylglycine] was run?
Answer: The EC50 was 590 nM.

Question: Which EC50 does the source give for `O=C(O)[C@@H]1CCCN1C(=O)c1cccc(COc2ccc(-c3ccc(F)c4ccoc34)cc2)c1` [compound of Ex. 3, 1-(3-{[4-(4-fluoro-1-benzofuran-7-yl)phenoxy]methyl}benzoyl)-L-proline] here?
Answer: Its EC50 is 110 nM.

Question: Which EC50 does the source give for `O=C(O)[C@@H]1CCCN1C(=O)c1cccc(COc2ccc(-c3ccc4occc4c3)cc2)c1` [compound of Ex. 6] here?
Answer: The EC50 was 330 nM.

Question: With `Cc1cc2cccc(-c3ccc(OCc4cccc(C(=O)N5CCC[C@H]5C(=O)O)c4)cc3)c2o1` [compound of Ex. 8] as the molecule, how does the EC50 read?
Answer: Its EC50 is 820 nM.

Question: With `O=C(O)[C@@H]1CCCN1C(=O)c1cccc(COc2ccc(-c3ccc(F)c4c3OCC4)cc2)c1` [compound of Ex. 10] as the molecule, how does the EC50 read?
Answer: The EC50 was 350 nM.

Same assay, conditions: concentration inducing relative activity of 50% (100% = Ex. 1 of WO/2011/058154 at 10 μM); incubation at 37° C. for 20 minutes (Examples 11 to 75)

Question: With `O=C(O)[C@@H]1CCCN1C(=O)c1cccc(COc2ccc(-c3cc(F)cc4ccoc34)cc2)c1` [compound of Ex. 12, 1-(3-{[4-(5-fluoro-1-benzofuran-7-yl)phenoxy]methyl}benzoyl)-L-proline] as the molecule, how does the EC50 read?
Answer: Its EC50 is 350 nM.

Question: For `O=C(O)[C@@H]1CCCN1C(=O)c1cccc(COc2ccc(-c3ccc(F)c4c3OCO4)cc2)c1` [compound of Ex. 13, 1-(3-{[4-(7-fluoro-1,3-benzodioxol-4-yl)phenoxy]methyl}benzoyl)-L-proline], which EC50 is on record?
Answer: The EC50 was 270 nM.

Question: With `O=C(O)[C@@H]1CCCN1C(=O)c1cccc(COc2ccc(-c3cc(F)c4occc4c3)cc2)c1` [compound of Ex. 14, 1-(3-{[4-(7-fluoro-1-benzofuran-5-yl)phenoxy]methyl}benzoyl)-L-proline] as the molecule, how does the EC50 read?
Answer: The EC50 was 70 nM.

Question: For `O=C(O)[C@@H]1CCCN1C(=O)c1cccc(COc2ccc(-c3cc4ccoc4c(F)c3F)cc2)c1` [compound of Ex. 16, 1-(3-{[4-(6,7-difluoro-1-benzofuran-5-yl)phenoxy]methyl}benzoyl)-L-proline], which EC50 is on record?
Answer: The EC50 was 35 nM.

Question: Which EC50 does the source give for `O=C(O)[C@@H]1CCCN1C(=O)c1cccc(COc2ccc(-c3cc(F)c4occc4c3F)cc2)c1` [compound of Ex. 17, 1-(3-{[4-(4,7-difluoro-1-benzofuran-5-yl)phenoxy]methyl}benzoyl)-L-proline] here?
Answer: Its EC50 is 270 nM.

Question: With `O=C(O)[C@@H]1CCCN1C(=O)c1cccc(COc2ccc(-c3c(F)cc(F)c4ccoc34)cc2)c1` [compound of Ex. 20, 1-(3-{[4-(4,6-difluoro-1-benzofuran-7-yl)phenoxy]methyl}benzoyl)-L-proline] as the molecule, how does the EC50 read?
Answer: The EC50 was 64 nM.

Question: For `Cc1coc2c(-c3ccc(OCc4cccc(C(=O)N5CCC[C@H]5C(=O)O)c4)cc3)cc(F)c(F)c12` [compound of Ex. 21, 1-(3-{[4-(4,5-difluoro-3-methyl-1-benzofuran-7-yl)phenoxy]methyl}benzoyl)-L-proline], which EC50 is on record?
Answer: The EC50 was 54 nM.

Question: `Cc1cc2c(F)c(F)cc(-c3ccc(OCc4cccc(C(=O)N5CCC[C@H]5C(=O)O)c4)cc3)c2o1` [compound of Ex. 23, 1-(3-{[4-(4,5-difluoro-2-methyl-1-benzofuran-7-yl)phenoxy]methyl}benzoyl)-L-proline] was tested. Which EC50 did it give?
Answer: Its EC50 is 110 nM.

Question: For `O=C(O)[C@@H]1CCCN1C(=O)c1cccc(COc2ccc(-c3cccc4c3CCC4)cc2)c1` [compound of Ex. 24, 1-(3-{[4-(2,3-dihydro-1H-inden-4-yl)phenoxy]methyl}benzoyl)-L-proline], which EC50 is on record?
Answer: The EC50 was 670 nM.

Question: How did the EC50 turn out when `O=C(O)[C@@H]1CCCN1C(=O)c1cccc(COc2ccc(-c3ccc(F)c4occc34)cc2)c1` [compound of Ex. 25, 1-(3-{[4-(7-fluoro-1-benzofuran-4-yl)phenoxy]methyl}benzoyl)-L-proline] was run?
Answer: The EC50 was 400 nM.

Question: `O=C(O)[C@@H]1CCCN1C(=O)c1cccc(COc2ccc(-c3ccc(F)c4c3C=CCO4)cc2)c1` [compound of Ex. 27, 1-(3-{[4-(8-fluoro-2H-chromen-5-yl)phenoxy]methyl}benzoyl)-L-proline] was tested. Which EC50 did it give?
Answer: Its EC50 is 210 nM.

Question: Which EC50 does the source give for `O=C(O)[C@@H]1CCCN1C(=O)c1cccc(COc2ccc(-c3cccc4ccsc34)cc2)c1` [compound of Ex. 28, 1-(3-{[4-(1-benzothien-7-yl)phenoxy]methyl}benzoyl)-L-proline] here?
Answer: Its EC50 is 890 nM.

Question: Which EC50 does the source give for `O=C(O)[C@@H]1CCCN1C(=O)c1cccc(COc2ccc(-c3ccc(F)c4[nH]ccc34)cc2)c1` [compound of Ex. 29, 1-(3-{[4-(7-fluoro-1H-indol-4-yl)phenoxy]methyl}benzoyl)-L-proline] here?
Answer: Its EC50 is 230 nM.

Question: How did the EC50 turn out when `O=C(O)[C@@H]1CCCN1C(=O)c1cccc(COc2ccc(-c3cc(F)c(F)c4occc34)cc2)c1` [compound of Ex. 30, 1-(3-{[4-(6,7-difluoro-1-benzofuran-4-yl)phenoxy]methyl}benzoyl)-L-proline] was run?
Answer: The EC50 was 140 nM.

Question: With `O=C(O)[C@@H]1CCCN1C(=O)c1cccc(COc2ccc(-c3cc(F)c(F)c4c3C=CCO4)cc2)c1` [compound of Ex. 31, 1-(3-{[4-(7,8-difluoro-2H-chromen-5-yl)phenoxy]methyl}benzoyl)-L-proline] as the molecule, how does the EC50 read?
Answer: The EC50 was 100 nM.

Question: Which EC50 does the source give for `O=C(O)[C@@H]1CCCN1C(=O)c1cccc(COc2ccc(-c3cc(F)c(F)c4[nH]ccc34)cc2)c1` [compound of Ex. 33, 1-(3-{[4-(6,7-difluoro-1H-indol-4-yl)phenoxy]methyl}benzoyl)-L-proline] here?
Answer: Its EC50 is 34 nM.

Question: Which EC50 does the source give for `C#CCOc1cc(F)c(F)cc1-c1ccc(OCc2cccc(C(=O)N3CCC[C@H]3C(=O)O)c2)cc1` [compound of Ex. 34, 1-[3-({[4′,5′-difluoro-2′-(prop-2-yn-1-yloxy)biphenyl-4-yl]oxy}methyl)benzoyl]-L-proline] here?
Answer: The EC50 was 17 nM.

Question: Which EC50 does the source give for `N#CCOc1cc(F)c(F)cc1-c1ccc(OCc2cccc(C(=O)N3CCC[C@H]3C(=O)O)c2)cc1` [compound of Ex. 35, 1-[3-({[2′-(cyanomethoxy)-4′,5′-difluorobiphenyl-4-yl]oxy}methyl)benzoyl]-L-proline] here?
Answer: The EC50 was 15 nM.

Question: How did the EC50 turn out when `C=CCOc1cc(F)c(F)cc1-c1ccc(OCc2cccc(C(=O)N3CCC[C@H]3C(=O)O)c2)cc1` [compound of Ex. 36, 1-[3-({[2′-(allyloxy)-4′,5′-difluorobiphenyl-4-yl]oxy}methyl)benzoyl]-L-proline] was run?
Answer: Its EC50 is 110 nM.

Question: For `[2H]C([2H])([2H])Oc1cc(F)c(F)cc1-c1ccc(OCc2cccc(C(=O)N3CCC[C@H]3C(=O)O)c2)cc1` [compound of Ex. 37, 1-(3-{[(4′,5′-difluoro-2′-d3 methoxybiphenyl-4-yl)oxy]methyl}benzoyl)-L-proline], which EC50 is on record?
Answer: The EC50 was 10 nM.

Question: For `CSc1cc(F)c(F)cc1-c1ccc(OCc2cccc(C(=O)N3CCC[C@H]3C(=O)O)c2)cc1` [compound of Ex. 38, 1-[3-({[4′,5′-difluoro-2′-(methylthio)biphenyl-4-yl]oxy}methyl)benzoyl]-L-proline], which EC50 is on record?
Answer: The EC50 was 29 nM.

Question: `O=C(O)[C@@H]1CCCN1C(=O)c1cccc(COc2ccc(-c3cc(F)c(F)c4ccsc34)cc2)c1` [compound of Ex. 39, 1-(3-{[4-(4,5-difluoro-1-benzothien-7-yl)phenoxy]methyl}benzoyl)-L-proline] was tested. Which EC50 did it give?
Answer: Its EC50 is 42 nM.

Question: For `Cc1cc2c(-c3ccc(OCc4cccc(C(=O)N5CCC[C@H]5C(=O)O)c4)cc3)cc(F)c(F)c2[nH]1` [compound of Ex. 41, 1-(3-{[4-(6,7-difluoro-2-methyl-1H-indol-4-yl)phenoxy]methyl}benzoyl)-L-proline], which EC50 is on record?
Answer: Its EC50 is 100 nM.
